Earlier results, collected in patent US10087176B2, “3,5-dichloro,4-(3,4-(cyclo-)alkoxyphenyl)--2-carbonyloxy)ethyl)pyridine derivatives as PDE-4 inhibitors” (Chiesi Farmaceutici S.p.A., priority 2014, dated 2018).

Assays:
[1] = test system: neutrophils and CXCL8 in sputum; settings: COPD patients, oral, given over 4 weeks
[2] = patients with severe disease, frequent exacerbations and mucus hypersecretion
[3] = test system: lung inflammation and emphysema; settings: smoking model of COPD in mice

O=C(Nc1c(Cl)cncc1Cl)c1ccc(OC(F)F)c(OCC2CC2)c1 [roflumilast]
effect on CXCL8 concentrations in sputum [1]: significantly reduces
reduction of numbers of neutrophils in sputum [1]: 36%
improvement of FEV 1 [2]: approximately 50 ml
reduction of exacerbation [2]: about 15%
effect on lung inflammation and emphysema [3]: inhibits lung inflammation and emphysema
